Measurements taken from patent US9161541B2, “Pesticide composition comprising propamocarb-hydrochloride and an insecticide active substance” (priority 2006, dated 2015).

Experiments:
Format in all cases: in vivo
[1] = tested on: larvae of the diamond black moth Plutella xylostella; test: Plutella xylostella test (cabbage leaf dip, larval mortality); settings: mortality after 4 days
Description: (§1) Solvent: 7 parts by weight of dimethylformamide
(§2) Emulsifier: 2 parts by weight of alkylaryl polyglycolether
(§3) To produce a suitable preparation of active compound, 1 part by weight of active compound is mixed with the stated amount of solvent and emulsifier, and the concentrate is diluted with emulsifier-containing water to the desired concentration. Cabbage leaves (Brassica oleracea) are treated by being dipped into the preparation of the active compound at the desired concentration and are infested with larvae of the diamond black moth Plutella xylostella as long as the leaves are still moist. After a period of time of 4 days, the mortality is determined. 100% means that all the caterpillars have been killed; 0% means that none of the caterpillars have been killed.

[2] = tested on: larvae of the fall army worm (Spodoptera frugiperda); test: Spodoptera frugiperda test (cabbage leaf dip, larval mortality); settings: mortality after 4 days
Description: as §1, §2
as §3, with “fall army worm (Spodoptera frugiperda)” for “diamond black moth Plutella xylostella”

[3] = tested on: larvae of the beet army worm (Spodoptera exigua); test: Spodoptera exigua test (cabbage leaf dip, larval mortality); settings: mortality after 6 days; rate of application 100 ppm
Description: as §1, §2
as §3, with “beet army worm (Spodoptera exigua)” for “diamond black moth Plutella xylostella”, “6” for “4”

N#C/N=C1\SCCN1Cc1ccc(Cl)nc1 [thiacloprid]
Efficacy (%) ([1]; rate of application 20 ppm): 20%

O=[N+]([O-])NC1=NCCN1Cc1ccc(Cl)nc1 [imidacloprid]
Efficacy (%) ([2]; rate of application 20 ppm): 0%

CCCOC(=O)NCCCN(C)C.Cl [propamocarb, propyl[3-(dimethylamino)propyl]carbamate hydrochloride]
Efficacy (%) ([1]; rate of application 200 ppm): 25% | Efficacy (%) [3]: 0% | Efficacy (%) ([2]; rate of application 100 ppm): 0% | Efficacy (%) ([2]; rate of application 200 ppm): 0%

CN/C(=N\[N+](=O)[O-])NCc1cnc(Cl)s1 [clothianidin]
Efficacy (%) [3]: 45% | Efficacy (%) ([2]; rate of application 20 ppm): 0%

CN1COCN(Cc2cnc(Cl)s2)/C1=N\[N+](=O)[O-] [thiamethoxam]
Efficacy (%) ([2]; rate of application 100 ppm): 0%
